Series [1] in a line: Half life in mouse at 2 mg/kg, iv or 10 mg/kg, po measured up to 24 hrs by LC-MS/MS analysis. Format: ADME, organism-based. To be noted: in vivo.
Series [2] in a line: Cmax in mouse at 1 mg/kg, iv measured up to 24 hrs by LC-MS/MS analysis. Format: ADME, organism-based. Set-up: route intravenous, dose 1 mg/kg, time <=24. To be noted: in vivo.
Series [3] deals with T1, Adenosine receptor A2a (Homo sapiens, UniProt P29274). Briefly: Antagonist activity at human adenosine 2A receptor expressed in T-REx-CHO cells preincubated for 1 hr followed by NECA stimulation and measured after 30 mins by Eu-cAMP tracer based TR-FRET assay. Format: functional, cell-based. The settings on record: filed as antagonist, time 1.5 hrs.
In series [4] the target is T2, Adenosine receptor A2b (Homo sapiens) (UniProt P29275).
T2 sequence (whole entry): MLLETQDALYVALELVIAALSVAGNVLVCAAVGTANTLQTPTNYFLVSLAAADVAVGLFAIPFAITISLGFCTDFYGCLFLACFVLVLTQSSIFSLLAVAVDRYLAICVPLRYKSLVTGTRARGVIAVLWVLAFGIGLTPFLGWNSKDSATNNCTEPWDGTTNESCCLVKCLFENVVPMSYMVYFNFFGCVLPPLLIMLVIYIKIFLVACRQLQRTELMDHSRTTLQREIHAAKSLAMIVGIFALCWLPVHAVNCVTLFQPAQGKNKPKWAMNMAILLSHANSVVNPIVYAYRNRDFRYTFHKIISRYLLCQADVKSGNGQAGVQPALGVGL
In words: Antagonist activity at human adenosine 2B receptor expressed in CHO-K1 cells preincubated for 1 hr followed by NECA stimulation and measured after 30 mins by Eu-cAMP tracer based TR-FRET assay. Format: functional, cell-based. The settings on record: filed as antagonist, time 1.5 hrs. For orientation: TR-FRET usually uses a lanthanide donor and a delayed reading to cut background.

The target in series [5] is T1, Adenosine receptor A2a. In words: Antagonist activity at human adenosine 2A receptor expressed in HEK293 cells assessed as reduction in NECA-induced cAMP level incubated for 15 mins by HTRF assay. Format: functional, cell-based. (Cyclic AMP is a second messenger, typically raised through Gs and lowered through Gi signalling.)
Series [6] is filed under the species Homo sapiens. In words: Selectivity ratio of IC50 for human adenosine 2B receptor expressed in HEK293 cells to IC50 for human adenosine 2A receptor expressed in HEK293 cells. Format: cell-based.
The species entered for series [7] is Homo sapiens. In words: Selectivity ratio of IC50 for human adenosine A1 receptor expressed in CHO cells to IC50 for human adenosine 2A receptor expressed in HEK293 cells. Format: cell-based.
The species named for series [8] is Homo sapiens. Briefly: Selectivity ratio of IC50 for human adenosine A3 receptor expressed in CHO cells to IC50 for human adenosine 2A receptor expressed in HEK293 cells. Format: cell-based.
The target of series [9] is Adenosine receptor A2a (Rattus norvegicus) (UniProt P30543). In words: Antagonist activity at adenosine 2A receptor in rat PC12 cells assessed as reduction in NECA-induced cAMP level incubated for 30 mins by TR-FRET assay. Format: functional, cell-based. The settings on record: PC-12, filed as antagonist.
Series [10] addresses T1, Adenosine receptor A2a. In words: Inhibition of FRET-labelled CA200645 binding to human adenosine 2A receptor expressed in CHO cells incubated for 2 hr by TR-FRET assay. Format: cell-based.
The target of the next series is T3, Adenosine receptor A1 (Homo sapiens, UniProt P30542).
T3 sequence (P30542 whole entry): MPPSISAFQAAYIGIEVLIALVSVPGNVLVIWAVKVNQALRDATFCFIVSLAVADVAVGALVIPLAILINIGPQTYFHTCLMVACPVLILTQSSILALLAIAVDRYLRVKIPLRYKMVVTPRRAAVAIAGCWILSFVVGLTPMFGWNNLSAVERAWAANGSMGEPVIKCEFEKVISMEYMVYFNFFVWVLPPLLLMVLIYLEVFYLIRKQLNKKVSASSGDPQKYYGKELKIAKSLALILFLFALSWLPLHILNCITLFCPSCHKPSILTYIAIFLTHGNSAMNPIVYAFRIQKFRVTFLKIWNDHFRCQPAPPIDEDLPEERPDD
Briefly: Inhibition of FRET-labelled CA200645 binding to human adenosine A1 receptor expressed in CHO cells incubated for 2 hr by TR-FRET assay. Format: cell-based.

Another series has as its target T4, Adenosine receptor A3 (Homo sapiens, UniProt P0DMS8).
T4 sequence (P0DMS8 whole entry): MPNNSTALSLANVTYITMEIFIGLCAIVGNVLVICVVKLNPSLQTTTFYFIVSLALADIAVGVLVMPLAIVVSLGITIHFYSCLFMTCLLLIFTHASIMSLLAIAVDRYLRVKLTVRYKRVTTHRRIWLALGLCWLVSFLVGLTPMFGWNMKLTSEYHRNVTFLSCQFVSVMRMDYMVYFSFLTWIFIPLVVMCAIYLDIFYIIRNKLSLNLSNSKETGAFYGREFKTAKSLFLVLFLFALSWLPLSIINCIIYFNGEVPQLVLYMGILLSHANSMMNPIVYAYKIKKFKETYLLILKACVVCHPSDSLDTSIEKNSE
Briefly: Inhibition of FRET-labelled CA200645 binding to human adenosine A3 receptor expressed in CHO cells incubated for 2 hr by TR-FRET assay. Format: cell-based.

For series [11], the target named is T1, Adenosine receptor A2a. In words: Antagonist activity at adenosine 2A receptor in human blood assessed as reversal of NECA/LPS-stimulated TNF-alpha release incubated for 5 hrs. Format: tissue-based.
The nature of series [12]: Tmax in human at 75 to 200 mg administered as single ascending dose. Format: ADME. To be noted: in vivo, dose 75-200 mg.
A short description of series [13]: Tmax in human at 75 to 200 mg administered as multiple ascending dose. Format: ADME. The settings on record: in vivo, dose 75-200 mg.
Series [14] can be described thus: Cmax in human at 75 to 200 mg. The arrangement: dose 75-200. Format: ADME.
Series [15] is described as follows: Half life in human at 75 to 200 mg. Format: ADME. The settings on record: dose 75-200 mg.

T1 sequence (P29274 whole entry): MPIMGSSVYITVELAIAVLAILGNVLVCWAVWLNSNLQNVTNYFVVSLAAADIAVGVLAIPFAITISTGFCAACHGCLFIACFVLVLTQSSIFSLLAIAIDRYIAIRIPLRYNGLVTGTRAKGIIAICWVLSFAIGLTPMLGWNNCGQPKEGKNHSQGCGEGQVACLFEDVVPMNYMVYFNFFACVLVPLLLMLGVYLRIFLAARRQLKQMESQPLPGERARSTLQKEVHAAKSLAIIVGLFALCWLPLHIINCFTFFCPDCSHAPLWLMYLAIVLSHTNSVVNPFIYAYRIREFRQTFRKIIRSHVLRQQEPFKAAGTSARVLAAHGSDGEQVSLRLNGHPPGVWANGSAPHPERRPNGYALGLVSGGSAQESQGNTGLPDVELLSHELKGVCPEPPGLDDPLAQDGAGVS
Sequence of Adenosine receptor A2a (Rattus norvegicus) (P30543 whole entry): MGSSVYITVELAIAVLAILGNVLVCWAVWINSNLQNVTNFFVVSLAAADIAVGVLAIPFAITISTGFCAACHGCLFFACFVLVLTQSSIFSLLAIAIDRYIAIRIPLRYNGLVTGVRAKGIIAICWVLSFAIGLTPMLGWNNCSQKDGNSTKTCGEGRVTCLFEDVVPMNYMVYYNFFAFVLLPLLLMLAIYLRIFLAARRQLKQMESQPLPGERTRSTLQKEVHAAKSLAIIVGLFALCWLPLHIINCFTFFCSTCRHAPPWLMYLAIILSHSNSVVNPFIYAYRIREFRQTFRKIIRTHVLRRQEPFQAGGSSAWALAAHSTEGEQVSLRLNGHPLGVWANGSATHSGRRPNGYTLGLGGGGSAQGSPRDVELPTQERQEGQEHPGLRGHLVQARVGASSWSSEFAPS

`COc1ccc(-c2cnn(C)c2)c2nc(NC(=O)N3CCC(C)(O)CC3)[nH]c12`: in series [1], the half-life was 0.867 h. The highest level in series [2] (Cmax) was 1320 ng/mL.
Regarding `COc1cccc2c(-c3cn(Cc4cccc(C(C)(C)O)n4)nn3)nc(N)nc12`, the Kb (at Adenosine receptor A2a [3]; in series [4]) was below 100 nM each time.
Regarding `COc1ccc(N2CCOCC2)c2nc(NC(=O)c3cccc(N4CCOCC4)c3)[nH]c12`, on Adenosine receptor A2a [5], the concentration for half-maximal inhibition (IC50) was below 10 nM. The compound also showed a half-life in series [1] of 1.15 h. In series [2], this compound had a Cmax of 2100 ng/mL. Further, the Ratio IC50 in the series listed under Homo sapiens [6], in the series listed under Homo sapiens [7] and in the series listed under Homo sapiens [8] was 1000 throughout.
Turning to `COc1cccc2c(-c3cn(Cc4cccc(C(C)(O)C(F)(F)F)[n+]4[O-])nn3)nc(N)nc12` (configuration not stated), the Kb (on Adenosine receptor A2a [3]; in [4]) was below 100 nM each time.
In series [1], `COCCn1cc(C(=O)Nc2cnc3c(C4CCOCC4)ccc(OC)c3n2)cn1` gave a half-life of 0.338 h. The same compound showed a Cmax in series [2] of 1220 ng/mL.
In turn, `COc1ncc(N2CCOCC2)c2nc(NC(=O)N3CCC(C)(O)CC3)[nH]c12` gave a half-life in [1] of 0.839 h. In addition, in series [2], the Cmax was found to be 2650 ng/mL.
In series [1], `COc1ccc(-c2cnn(C)c2)c2nc(NC(=O)N3CC[C@@]4(CCCOC4)C3)[nH]c12` gave a half-life of 1.11 h. For the same compound, in [2], the Cmax was determined as 1440 ng/mL.
For `COc1ccc(N2CCOCC2)c2sc(NC(=O)N3CCC(C)(O)CC3)nc12` [TOZADENANT] the same measures were 0.184 h and 337 ng/mL.
For `Nc1nc(-c2ccccc2)c(-c2ccc(O)c(Cl)c2)n2ccnc12`, in series [9], the antagonist dissociation constant (Kb) is below 10000 nM.
`COc1ccc(C2CCOCC2)c2ncc(NC(=O)N3CCC(C)(O)CC3)nc12` showed a half-life in series [1] of 0.92 h.
As for `Cc1cccnc1CNC(=O)c1c(N)nc(-c2ccco2)nc1OCCF`, the Ki at Adenosine receptor A2a [10] came to 1.3 nM; at Adenosine receptor A1 it was 260 nM; at Adenosine receptor A3, 62 nM. Also, the IC50 on Adenosine receptor A2a [11] is above 200 nM.
For the compound `Cc1c(C#N)cccc1-c1cc(-c2cn(Cc3cccc(C(C)(C)O)n3)nn2)nc(N)n1` [ETRUMADENANT], the Tmax in series [12] came out at 2 h; in [13], 1.5 h. Besides, the Cmax in [14] came to 1170 ng/mL. The compound also gave a half-life in [15] of 20 h.
Regarding `COc1ncc(N2CCOCC2)c2nc(NC(=O)c3cnn(C)c3)[nH]c12`, the half-life in series [1] was 1.72 h. The Cmax in series [2] was 733 ng/mL.

Broadly, the half-life is how long it takes for the measured level to halve. A low value points to rapid decline. What is called Cmax is the peak of the concentration-time curve. Usually Kb stands for the affinity of an antagonist, worked out from how it opposes an agonist. A word on the IC50: it is the concentration needed to halve the response being measured. In general, Ki refers to a measure of affinity in units of concentration, obtained from inhibition or displacement. A high value points to lower affinity. As usually defined, the Tmax is the time at which the peak concentration occurs.

For the origin of these results see ChEMBL document CHEMBL4699449, “Adenosine A Receptor Antagonists for Cancer Immunotherapy” (J Med Chem, 2020).
